In patent US8957074B2 (Novartis AG, priority 2010, dated 2015):
Where two headings read alike, the source gives them in different places.

Assays:
[1] = target: CDK1/cyclin B (Homo sapiens (Human), UniProt P06493); test: CDK1/cyclin B enzymatic activity assay (IMAP-FP); assay type: biochemical; details: 100 nM Tamra Histone-H1 peptide, 20 μM ATP, 120 min at room temperature, read-out: Biochemical CDK1 enzyme IC50
Excerpt: CDK1/Cyclin B Enzymatic Activity Assay
A 384-well microtiter IMAP-FP™ (Molecular Devices Trade Mark Technology) endpoint assay was used for CDK1/cyclin B kinase activity measurements. The same assay was used for IC50 determination of small molecule inhibitors.

[2] = target: CDK4/cyclin D1 (Homo sapiens (Human), UniProt P11802); test: CDK4/cyclin D1 enzymatic activity assay (TR-FRET, phosphorylation of pRb at Ser780); assay type: biochemical
Protocol: CDK4/Cyclin D1 Enzymatic Activity Assay
An assay for monitoring CDK4/cyclin D1-catalyzed phosphorylation of pRb at the Ser780 site was performed using TR-FRET in a 384-well format, and was used for IC50 determination and kinetic analysis. […] 3 μM ATP was added last to initiate the reaction. The reaction was quenched with 10 μL of 240 mM EDTA-Na (pH 8.0) after 60 min incubation at 22° C.
Human CDK4/cyclin D1 was expressed in Sf21 cells via baculovirus infection.

[3] = test system: phosphorylation of pRb at the Ser780 site in JeKo-1 mantle cell lymphoma cells; test: CDK4 cellular assay: ELISA of pRb phosphorylation at Ser780 in JeKo-1 cells; assay type: cell-based
Excerpt: Cell-based assay measuring phosphorylation levels of pRb at the Ser780 site using an enzyme-linked immunosorbent assay (ELISA) method (Table 6). JeKo-1, a mantle-cell lymphoma cell line, was selected for use in this assay due to its known translocation and subsequent overexpression of cyclin D1. [Ref: Amin, H. M.; McDonnell, T. J.; Medeiros, L. J.; Rassidakis, G. Z.; Leventaki, V.; O'Connor, S. L.; Keating, M. J.; Lai, R. Characterization of 4 mantle cell lymphoma cell lines—Establishment of an in vitro study model. Arch. Pathol. Lab.
Cells were allowed to adhere overnight. […] 10 μL of the dilution were then transferred to the cell culture plate, resulting in a final concentration range of 10 μM to 2 nM. The incubation was carried out at 37° C. with 5% CO2. All compounds were tested in triplicates at each concentration. […] The plates were placed at 4° C. with vigorous shaking for 5 min to lyse the cells. The resulting lysates contained approximately 1 μg/μL of protein.
Plates were incubated overnight at 4° C. with rocking. […] After shaking for 10 minutes, the Superblock solution was replaced with fresh Superblock and plates were incubated on a shaker for an additional 50 min. After blocking, 30 μL of JeKo-1 cell lysate, containing approximately 10 μg total protein, were added to wells in triplicate. […] For all incubation steps, plates were covered with Uniseal plate sealers. […] Next, 50 μL of a 1:2500 dilution of donkey-anti-rabbit HRP (Promega catalog no. W401B) in PBS/10% Superblock were added, and plates were incubated for 30 min at room temperature on a shaker. Plates were again washed as described above. […] After incubation, 50 μL 2 M sulfuric acid were added to plates to top the reaction, and absorbance was determined on a SpectraMax (Molecular Devices, Sunnydale, Calif.) within 15 minutes at 450 nm. All washes were performed using a Bio-Tek plate washer.
The Total Rb ELISA kit (Invitrogen catalog no. KH00011) was used to determine the levels of total pRb. This kit uses wells precoated with a proprietary total pRb antibody for capture. All reagents listed, with the exception of cell lysate, were included in the kit. The nature of the antibodies used for capture and detection was labeled as proprietary and not disclosed. 10 μg of cell lysate was loaded into the wells and volume adjusted to 50 μL with standard dilution buffer. Plates were sealed with film included in the kit and incubated for 2 h at room temperature on a shaker. Plates are then manually washed three times with 250 μL wash buffer. 50 μL of proprietary primary antibody (pre-conjugated to biotin) was added to wells and incubated for 1 h at room temperature on a shaker. Then plates were again washed as noted above. The secondary antibody (HRP pre-conjugated to Streptavidin) was diluted 1:100 in Streptavidin-HRP diluent buffer and 50 μL was added to each well. Plates were then incubated for 30 min. Afterwards, plates were washed four times with buffer as outlined above. Finally, 50 μL stabilized Chromogen was added per well and plates were incubated for 15 min, at which point 50 μL of stop solution was added. Plates were then read on a Spectramax at 450 nm.
The total pRb levels were then used to adjust the p-pRb % inhibition values to account for any loss of signal due to the absence of the pRb protein itself, and the IC50 values obtained from the adjusted % inhibitions represent normalized cellular p-pRb IC50.

[4] = 0.3 nM CDK4/cyclin D1, 150 nM biotin-pRb (773-924), 3 μM ATP, 60 min at 22° C., read-out: Biochemical CDK4 enzyme IC50
[5] = Homo sapiens, JeKo-1 cells, p-pRb % inhibition adjusted with total pRb levels, read-out: Normalized cellular ppRb inhibition IC50
[6] = Homo sapiens, JeKo-1 cells, p-pRb Ser780 ELISA, non-normalized, read-out: Cellular ppRb inhibition IC50
[7] = Homo sapiens, JeKo-1, JeKo-1 cells, p-pRb % inhibition adjusted with total pRb levels, read-out: Normalized cellular ppRb inhibition IC50
[8] = Homo sapiens, JeKo-1, JeKo-1 cells, p-pRb Ser780 ELISA, non-normalized, read-out: Cellular ppRb inhibition IC50

Sequence of CDK1/cyclin B (P06493 whole entry, species assumed): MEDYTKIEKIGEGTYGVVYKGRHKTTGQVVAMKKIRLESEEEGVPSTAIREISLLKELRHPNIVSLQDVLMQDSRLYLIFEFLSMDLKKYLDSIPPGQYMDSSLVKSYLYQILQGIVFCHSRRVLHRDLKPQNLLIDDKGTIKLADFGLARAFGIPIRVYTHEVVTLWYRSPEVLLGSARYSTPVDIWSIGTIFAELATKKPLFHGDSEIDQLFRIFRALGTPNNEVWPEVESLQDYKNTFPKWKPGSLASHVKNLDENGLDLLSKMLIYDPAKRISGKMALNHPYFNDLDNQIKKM
Sequence of CDK1/cyclin B (P14635 whole entry partner, species assumed): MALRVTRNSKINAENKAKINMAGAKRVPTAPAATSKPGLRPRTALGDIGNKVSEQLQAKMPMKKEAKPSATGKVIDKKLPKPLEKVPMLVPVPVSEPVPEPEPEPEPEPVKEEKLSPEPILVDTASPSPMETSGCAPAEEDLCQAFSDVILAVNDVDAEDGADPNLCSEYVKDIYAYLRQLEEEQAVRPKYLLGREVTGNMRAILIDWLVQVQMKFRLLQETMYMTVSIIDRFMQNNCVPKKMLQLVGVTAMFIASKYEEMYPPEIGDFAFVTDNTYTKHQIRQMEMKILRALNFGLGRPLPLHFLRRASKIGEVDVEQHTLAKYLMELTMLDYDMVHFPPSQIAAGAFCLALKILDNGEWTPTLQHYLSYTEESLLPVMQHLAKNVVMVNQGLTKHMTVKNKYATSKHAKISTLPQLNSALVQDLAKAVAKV
Sequence of CDK4/cyclin D1 (P11802 whole entry): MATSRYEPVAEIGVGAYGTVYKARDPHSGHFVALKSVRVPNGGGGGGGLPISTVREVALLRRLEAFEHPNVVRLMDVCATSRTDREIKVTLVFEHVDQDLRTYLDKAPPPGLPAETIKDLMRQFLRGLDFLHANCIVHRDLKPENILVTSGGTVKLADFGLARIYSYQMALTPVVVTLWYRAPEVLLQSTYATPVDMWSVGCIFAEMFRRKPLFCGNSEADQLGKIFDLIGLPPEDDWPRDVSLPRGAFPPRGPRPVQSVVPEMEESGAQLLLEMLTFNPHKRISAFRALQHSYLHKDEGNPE
Sequence of CDK4/cyclin D1 (P24385 whole entry partner): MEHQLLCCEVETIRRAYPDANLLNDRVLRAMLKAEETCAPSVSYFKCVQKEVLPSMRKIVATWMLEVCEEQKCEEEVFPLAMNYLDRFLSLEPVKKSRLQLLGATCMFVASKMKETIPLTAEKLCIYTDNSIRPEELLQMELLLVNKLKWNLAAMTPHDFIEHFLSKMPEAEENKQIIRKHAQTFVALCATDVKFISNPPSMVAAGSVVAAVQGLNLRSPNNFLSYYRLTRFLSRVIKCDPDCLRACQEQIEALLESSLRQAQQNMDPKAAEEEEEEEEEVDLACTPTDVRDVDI

Row | Compound | IC50 ([1]; […] CDK1/cyclin B) | IC50 [2, 4] | IC50 [3, 5] | IC50 [3, 6] | IC50 [3, 7] | IC50 [3, 8] | other results
1 | CN(C)C(=O)c1cc2cnc(Nc3ccc(N4C[C@H]5CNC[C@H]5C4=O)cn3)nc2n1C1CCCCCC1 [Example 83, 7-cycloheptyl-N,N-dimethyl-2-(5-((3aR,6aS)-1-oxohexahydropyrrolo[3,4-c]pyrrol-2(1H)-yl)pyridin-2-ylamino)-7H-pyrrolo[2,3-d]pyrimidine-6-carboxamide] | 5.32 µM | 3 nM | 9 nM | 5 nM | – | – | –
2 | CN(C)C(=O)c1cc2cnc(Nc3ccc(C(=O)N4CC5CC4CN5)cn3)nc2n1C1CCCCCC1 (stereo not shown) [Example 3, 7-Cycloheptyl-2-[5-(2,5-diaza-bicyclo[2.2.1]heptane-2-carbonyl)-pyridin-2-ylamino]-7H-pyrrolo[2,3-d]pyrimidine-6-carboxylic acid dimethylamide] | – | 1 nM | 29 to 33 nM | 19 to 26 nM | – | – | IC50 ([1]; 0.25 nM CDK1/cyclin B): 4.2 to 5.14 µM
3 | Cc1cc(Nc2ncc3cc(C(=O)N(C)C)n(C4CCCC4)c3n2)ncc1C(=O)N1CC2CCC(C1)N2 [Example 51, 7-Cyclopentyl-2-[5-(3,8-diaza-bicyclo[3.2.1]octane-3-carbonyl)-4-methyl-pyridin-2-ylamino]-7H-pyrrolo[2,3-d]pyrimidine-6-carboxylic acid dimethylamide] | – | 23 nM | 60 nM | 28 nM | – | – | IC50 ([1]; 0.25 nM CDK1/cyclin B): > 15 µM
4 | CN(C)C(=O)c1cc2cnc(Nc3ccc(C(=O)N4C[C@H]5CNC[C@@H](C4)C5O)cn3)nc2n1C1CCCCCC1 (stereo partly drawn) [Example 2, 7-cycloheptyl-2-(5-((1R,5S)-9-hydroxy-3,7-diazabicyclo[3.3.1]nonane-3-carbonyl)pyridin-2-ylamino)-N,N-dimethyl-7H-pyrrolo[2,3-d]pyrimidine-6-carboxamide] | > 15 µM | 5 nM | – | – | 84 nM | 66 nM | –
5 | CN(C)C(=O)c1cc2cnc(Nc3ccc(N4CC5CNCC5CC4=O)cn3)nc2n1C1CCCCCC1 (racemic) [Example 87, 7-cycloheptyl-N,N-dimethyl-2-(5-(cis-6-oxotetrahydro-1H-pyrrolo[3,4-c]pyridin-5(6H,7H,7aH)-yl)pyridin-2-ylamino)-7H-pyrrolo[2,3-d]pyrimidine-6-carboxamide] | 4.14 µM | < 5 nM | – | – | – | – | IC50 ([3]; Homo sapiens, JeKo-1, read-out: Cellular ppRb inhibition IC50): 5 to 8 nM; IC50 ([3]; Homo sapiens, JeKo-1, read-out: Normalized cellular ppRb inhibition IC50): 6 to 15 nM
6 | CN(C)C(=O)c1cc2cnc(Nc3ccc(C(=O)N4[C@@H]5CNC[C@H]4COC5)cn3)nc2n1C1CCCC1 [Example 40, 2-(5-((1R,5S)-3-oxa-7,9-diazabicyclo[3.3.1]nonane-9-carbonyl)pyridin-2-ylamino)-7-cyclopentyl-N,N-dimethyl-7H-pyrrolo[2,3-d]pyrimidine-6-carboxamide] | > 15 µM | 36 to 52 nM | 51 to 222 nM | 40 to 99 nM | – | – | –
7 | CN(C)C(=O)c1cc2cnc(Nc3ccc(C(=O)N4C[C@@H]5[C@@H](N)[C@@H]5C4)cn3)nc2n1C1CCCC1 [Example 42, 2-[5-((1S,5R,6S)-6-Amino-3-aza-bicyclo[3.1.0]hexane-3-carbonyl)-pyridin-2-ylamino]-7-cyclopentyl-7H-pyrrolo[2,3-d]pyrimidine-6-carboxylic acid dimethylamide] | > 15 µM | 15 nM | 241 nM | 86 nM | – | – | –
8 | CN(C)C(=O)c1cc2cnc(Nc3ccc(C(=O)N4CC5CCC(C4)N5)cn3)nc2n1-c1cccc(C(C)(C)C)c1 [Example 54, 7-(3-tert-Butyl-phenyl)-2-[5-(3,8-diaza-bicyclo[3.2.1]octane-3-carbonyl)-pyridin-2-ylamino]-7H-pyrrolo[2,3-d]pyrimidine-6-carboxylic acid dimethylamide] | 1.99 µM | 3 nM | – | – | 8 to 47 nM | 6 to 33 nM | –
9 | CN(C)C(=O)c1cc2cnc(Nc3ccc(N4C[C@@]5(CCCNC5)OC4=O)cn3)nc2n1C1CCCC1 [Example 109, 7-Cyclopentyl-2-[5-((S)-2-oxo-1-oxa-3,7-diaza-spiro[4.5]dec-3-yl)-pyridin-2-ylamino]-7H-pyrrolo[2,3-d]pyrimidine-6-carboxylic acid dimethylamide] | > 15 µM | 12 nM | 75 nM | 48 nM | – | – | –
10 | [2H]C([2H])([2H])N1[C@@H]2CC[C@H]1CN(c1ccc(Nc3ncc4cc(C(=O)N(C)C)n(C5CCCC5)c4n3)nc1)C(=O)C2 [Example 143, 7-Cyclopentyl-2-[5-((1S,6R)-9-trideuteromethyl-4-oxo-3,9-diazabicyclo[4.2.1]non-3-yl)-pyridin-2-ylamino]-7H-pyrrolo[2,3-d]pyrimidine-6-carboxylic acid dimethylamide] | – | 44 nM | – | – | 251 nM | 119 nM | IC50 ([1]; 0.25 nM CDK1/cyclin B): > 15 µM
11 | CN(C)C(=O)c1cc2cnc(Nc3ccc(N4C[C@@H]5CC[C@H](CC4=O)N5C)cn3)nc2n1C1CCCC1 [Example 141, 7-Cyclopentyl-2-[5-((1S,6R)-9-methyl-4-oxo-3,9-diaza-bicyclo[4.2.1]non-3-yl)-pyridin-2-ylamino]-7H-pyrrolo[2,3-d]pyrimidine-6-carboxylic acid dimethylamide] | > 15 µM | 45 nM | – | – | 34 nM | 24 nM | –
12 | CN(C)C(=O)c1cc2cnc(Nc3ccc(N4C[C@H]5CC[C@@H](CC4=O)N5)cn3)nc2n1C1CCCCC1 [Example 133, 7-Cyclohexyl-2-[5-((1R,6S)-4-oxo-3,9-diaza-bicyclo[4.2.1]non-3-yl)-pyridin-2-ylamino]-7H-pyrrolo[2,3-d]pyrimidine-6-carboxylic acid dimethylamide] | 13.3 µM | < 5 nM | – | – | 7 nM | 5 nM | –
13 | CN(C)C(=O)c1cc2cnc(Nc3ccc(N4CC5CCC(CC4=O)N5)cn3)nc2n1C1CCCC1 (stereo not shown) [Example 122, 7-Cyclopentyl-2-[5-(4-oxo-3,9-diaza-bicyclo[4.2.1]non-3-yl)-pyridin-2-ylamino]-7H-pyrrolo[2,3-d]pyrimidine-6-carboxylic acid dimethylamide] | > 15 µM | – | – | – | – | – | IC50 [2]: 5 to 10 nM; IC50 ([3]; JeKo-1 cells, p-pRb % inhibition adjusted with total pRb levels, read-out: Normalized cellular ppRb inhibition IC50): 14 nM; IC50 ([3]; JeKo-1 cells, p-pRb Ser780 ELISA, non-normalized, read-out: Cellular ppRb inhibition IC50): 9 nM
